In US20080004272A1, “Compositions and methods for modulating gated ion channels” (PainCeptor Pharma Corporation, priority 2006, published 2008):

Tests used:
ASIC1a [1] = biological target: T1, ASIC1a (Homo sapiens, UniProt P78348); experiment: Two-electrode voltage clamp in Xenopus laevis oocytes (Xo), acid-induced currents; assay type: cell-based; parameters: expressed in transfected cells; host or cells: Xenopus laevis oocytes (nuclear microinjection of expression vector such as pcDNA3); conditions: Xenopus oocytes; for inhibition at 50 µM: read-out: % inh. at 50 μM (Xo)
T1 sequence (P78348 1-528): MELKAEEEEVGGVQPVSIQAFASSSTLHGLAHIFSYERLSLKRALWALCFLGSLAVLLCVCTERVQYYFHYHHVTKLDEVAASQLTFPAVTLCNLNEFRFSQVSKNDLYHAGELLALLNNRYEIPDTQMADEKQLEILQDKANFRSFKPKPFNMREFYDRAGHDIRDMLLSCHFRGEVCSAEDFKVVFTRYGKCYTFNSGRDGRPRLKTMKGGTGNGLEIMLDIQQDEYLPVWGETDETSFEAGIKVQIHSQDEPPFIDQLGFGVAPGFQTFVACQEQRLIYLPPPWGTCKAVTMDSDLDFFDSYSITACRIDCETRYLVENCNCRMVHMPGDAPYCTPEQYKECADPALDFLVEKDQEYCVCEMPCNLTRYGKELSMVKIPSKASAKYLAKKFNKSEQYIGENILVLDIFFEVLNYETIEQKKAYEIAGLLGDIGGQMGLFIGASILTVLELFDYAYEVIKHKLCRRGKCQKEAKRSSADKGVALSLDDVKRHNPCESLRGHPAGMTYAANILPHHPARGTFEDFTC
Experimental: Two-electrode voltage clamp electrophysiological assays in Xenopus laevis oocytes expressing gated ion channels are performed as follows:
Oocytes are surgically removed from adult Xenopus laevis and treated for 2 h at room temperature with 1 mg/ml type I collagenase (Sigma) in Barth's solution under mild agitation. Selected oocytes at stage IV-V are defolliculated manually before nuclear microinjection of 2.5-5 ng of a suitable expression vector, such as pcDNA3, comprising the nucleotide sequence encoding a gated ion channel subunit protein. In such an experiment, the oocytes express homomultimeric proton-gated ion channels on their surface. In an alternate experiment, one, two, three or more vectors comprising the coding sequences for distinct gated ion channel subunits are co-injected in the oocyte nuclei. In the latter case, oocytes express heteromultimeric proton-gated ion channels. For example, ASIC2a and/or ASIC3 subunits in pcDNA3 vector are co-injected at a 1:1 cDNA ratio. After 2-4 days of expression at 19° C. in Barth's solution containing […] gentamicin and 1.8 mM CaCl2, gated ion channels are activated by applying an acidic solution (pH<7) and currents are recorded in a two electrode voltage-clamp configuration, using an OC-725B amplifier (Warner Instruments). Currents are acquired and digitized at 500 Hz on an Apple Imac G3 computer with an A/D NB-MIO-16XL interface (National Instruments) and recorded traces are post-filtered at 100 Hz in Axograph (Axon Instruments) (Neher, E. and Sakmann, B. (1976) Nature 260:799-802). Once impaled with the microelectrodes, oocytes are continuously superfused at 10-12 ml/min with a modified Ringer's solution containing 97 mM NaCl, 2 mM KCl, 1.8 mM CaCl2, and 10 mM HEPES brought to pH 7.4 with NaOH (Control Ringer). Test Ringer solution is prepared by replacing HEPES with MES and adjusting the pH to the desired acidic value. Compounds of the present invention are prepared in both the Control and Test Ringer solutions and applied to oocytes at room temperature through a computer-controlled switching valve system. Osmolarity of all solutions is adjusted to 235 mOsm with choline chloride. Similarly, recordings can also be acquired in an automated multichannel oocytes system as the OpusExpress™ (Molecular Devices, Sunnyvale, USA).
FIGS. 1A and 2A illustrate the inhibitory effects of Compounds 203 and 206 on acid-induced activation of recombinant homomeric hASIC1a channels.

ASIC1a [2] = biological target: T1, ASIC1a; experiment: Calcium imaging of MES-induced calcium response (FLIPR); assay type: cell-based; parameters: host or cells: HEK293; conditions: ASIC1a expressing HEK293 cells, MES-induced calcium response; read-out: IC50 (FLIPR)
Experimental: […] Confluency of cells should be 80-90% on day of plating. Cells are rinsed with 10 ml of PBS and cells are re-suspended by addition of culture medium and trituration with a 25 ml pipette.
The cells are seeded at a density of approximately 1×10^6 cells/ml (100 μl/well) in black-walled, clear bottom, 96-well plates pre-treated with 10 mg/l poly-D-lysin (75 μl/well for ≧30 min). Plated cells are allowed to proliferate for 24 h before loading with dye.
Fluo-4/AM (1 mg, Molecular Probes) is dissolved in 912 μl DMSO. The Fluo-4/AM stock solution (1 mM) is diluted with culture medium to a final concentration of 2 μM (loading solution).
The culture medium is aspirated from the wells, and 50 μl of the Fluo-4/AM loading solution is added to each well. The cells are incubated at 37° C. for 30 min.
Following the second wash, 100 μl modified Assay Buffer is added to each well and the fluorescence is measured in FLIPR™ or FlexStation™ (Molecular Devices, USA), or any other suitable equipment known to the skilled in the art.
Temperature: Room temperature (20-22° C.)
First addition: 50 μl test solution at a rate of 30 μl/sec and a starting height of […]
Second addition: 50 μl MES solution (20 mM, 5 mM final concentration) at a rate of 35 μl/sec and a starting height of 150 μl.
Reading intervals: pre-incubation−10 sec×7 and 3 sec×3 antagonist phase−3 sec×7 and 10 sec×12
Addition plates (compound test plate and MES plate) are placed on the right and left positions in the FLIPR tray, respectively. Cell plates are placed in the middle position and the ASIC1a program is effectuated. FLIPR will then take the appropriate measurements in accordance with the interval settings above. Fluorescence obtained after stimulation is corrected for the mean basal fluorescence (in modified Assay Buffer).
The MES-induced peak calcium response, in the presence of test substance, is expressed relatively to the MES response alone. Test substances that block the MES-induced calcium response are re-tested in triplicates.

Row | inhibition at 50 µM (ASIC1a [1]) [%] | SMILES | also measured
1 | 20 to 40 | COC(=O)c1ccccc1CO/N=C1/C(=O)Nc2c1cc(-c1ccccc1)c1c2CN(C)CC1 [Compound 65] | –
2 | < 25 | CCN(CC)C(=O)c1cc(-c2cc(F)ccc2OC)cc(C)c1NC(=O)N1CCNC1=O [Compound 192, 2-Oxo-imidazolidine-1-carboxylic acid (5-diethylcarbamoyl-5′-fluoro-2′-methoxy-3-methyl-biphenyl-4-yl)-amide] | –
3 | < 25 | CCN(CC)C(=O)c1cc(-c2cc(F)ccc2OC)cc(C)c1NC(=O)N1CCN(C(C)C)CC1 [Compound 193, 4-Isopropyl-piperazine-1-carboxylic acid (5-diethylcarbamoyl-5′-fluoro-2′-methoxy-3-methyl-biphenyl-4-yl)-amide] | –
4 | < 25 | CN1CCc2c(-c3ccccc3)cc3ncc(O)nc3c2C1 [Compound 101] | –
5 | < 25 | CCOC(=O)N1CCc2c(Br)cc(C(=O)CCl)c(N)c2C1 [Compound 163] | –
6 | < 25 | CN1CCc2c(-c3ccccc3)ccc(CNC(=O)c3ccccc3)c2C1 [Compound 116] | –
7 | < 25 | COc1ccc(F)cc1-c1cc(C#N)c(N(C(C)=O)C(C)=O)c2c1CCN(C)C2 [Compound 194, N-Acetyl-N-[7-cyano-5-(5-fluoro-2-methoxy-phenyl)-2-methyl-1,2,3,4-tetrahydro-isoquinolin-8-yl]-acetamide] | –
8 | < 25 | CN1CCc2c(-c3ccccc3)cc3c(c2C1)NC(=O)C3=NNC(=O)c1ccc(O)cc1O [Compound 113] | –
9 | < 25 | CNN=C1C(=O)Nc2c1cc(-c1ccccc1)c1c2CN(C)CC1 [Compound 108] | –
10 | 50 to 70 | COc1ccc(F)cc1Oc1cc2c(c3c1CCN(C)C3)NC(=O)/C2=N/O [Compound 12] | –
11 | – | COCCOCO/N=C1/C(=O)Nc2c1cc(-c1ccccc1)c1c2CN(C)CC1 [Compound 62] | inhibition at 100 µM (ASIC1a [1]; 100 μM, read-out: % inh. at 100 μM (Xo)): > 50%
12 | 20 to 40 | CN1CCc2c(-c3ccccc3)cc3c(c2C1)NC(=O)C3=NNC(=O)C(N)=O [Compound 107] | –
13 | < 25 | COc1ccc(F)cc1Oc1ccc([N+](=O)[O-])c2cnccc12 [Compound 8] | –
14 | < 25 | CC(C)(C)OC(=O)N1CCc2c(-c3ccccc3)ccc(NCC(=O)Oc3ccccc3)c2C1 [Compound 170] | –
15 | < 25 | COc1ccc(F)cc1Oc1cc2c(c3c1CCN(C)C3)NC(=O)C2=O [Compound 13] | –
16 | < 25 | COC(=O)CNc1ccc(-c2ccccc2)c2c1CN(C(=O)OC(C)(C)C)CC2 [Compound 167] | –
17 | < 25 | CCN1CCc2c(-c3ccccc3)cc3[nH]c(=O)[nH]c3c2C1 [Compound 222] | –
18 | < 25 | CCOC(=O)N1CCc2c(-c3ccccc3)ccc(CN(CC(=O)O)Cc3ccccc3)c2C1 [Compound 123] | –
19 | < 25 | CN1CCc2c(-c3ccccc3)cc(C(=O)NOCc3ccccc3)c(N)c2C1 [Compound 166] | –
20 | – | CN1CCc2c(-c3ccccc3)cc3c(c2C1)NC(=O)/C3=N/OC1CCCCO1 (stereo not drawn) [Compound 61] | inhibition at 30 µM (ASIC1a [1]; 30 μM, read-out: % inh. at 30 μM (Xo)): > 50%
21 | < 25 | CC(C)(C)OC(=O)N1CCc2c(-c3ccccc3)ccc(N)c2C1 [Compound 168] | –
22 | 20 to 40 | CN1CCc2c(-c3ccccc3)cc3c(c2C1)NCC/C3=N/O [Compound 96] | –
23 | < 25 | CC(=O)OCCOCO/N=C1/C(=O)Nc2c1cc(-c1ccccc1)c1c2CN(C)CC1 [Compound 64] | –
24 | < 25 | CCN(CC)C(=O)c1cc(-c2cc(F)ccc2OC)cc(C)c1N(C(=O)N1CCOCC1)C(=O)N1CCOCC1 [Compound 190, Morpholine-4-carboxylic acid (5-diethylcarbamoyl-5′-fluoro-2′-methoxy-3-methyl-biphenyl-4-yl)-(morpholine-4-carbonyl)-amide] | –
25 | < 25 | CCN(CC)C(=O)c1cc(-c2cc(F)ccc2OC)cc(C)c1N [Compound 188, 4-Amino-5′-fluoro-2′-methoxy-5-methyl-biphenyl-3-carboxylic acid diethylamide] | –
26 | – | Cc1ccccc1-c1cc2c(c3c1CCN(C)C3)NC(=O)/C2=N/O [Compound 41] | IC50 (ASIC1a [2]): < 10 µM
27 | – | COc1cccc(-c2cc3c(c4c2CCN(C)C4)NC(=O)/C3=N\O)c1 [Compound 43] | IC50 (ASIC1a [2]): < 10 µM
28 | – | CN1CCc2c(-c3ccccc3S(=O)(=O)N(C)C)cc3c(c2C1)NC(=O)/C3=N\O [Compound 223] | IC50 (ASIC1a [2]): > 70 µM
29 | – | CN1CCc2c(-c3ccccc3C(F)(F)F)cc3c(c2C1)NC(=O)/C3=N/O [Compound 18] | IC50 (ASIC1a [2]): < 20 µM
30 | – | CN1CCc2c(-c3ccc(S(=O)(=O)N4CCN(CCO)CC4)cc3)cc3c(c2C1)NC(=O)C3=NO [Compound 4, 5-{4-[4-(2-Hydroxy-ethyl)-piperazine-1-sulfonyl]-phenyl}-8-methyl-6,7,8,9-tetrahydro-1H-pyrrolo[3,2-h]isoquinoline-2,3-dione 3-oxime] | IC50 (ASIC1a [2]): > 70 µM

Row | SMILES | inhibition at 50 µM (ASIC1a [1]) [%] | also measured
31 | CC(=O)Nc1c(C(N)=O)cc(-c2ccccc2)c2c1CN(C)CC2 [Compound 164] | < 25 | –
32 | O=C(/C=N/O)Nc1ccc(-c2ccccc2)c2c1CNCC2 [Compound 171] | < 25 | –
33 | COC(=O)CNc1ccc(-c2ccccc2)c2c1CN(C)CC2 [Compound 205, (2-Methyl-5-phenyl-1,2,3,4-tetrahydro-isoquinolin-8-ylamino)-acetic acid methyl ester] | 20 to 40 | –
34 | COC(=O)CN(C(C)=O)c1ccc(-c2ccccc2)c2c1CN(C)CC2 [Compound 169] | < 25 | –
35 | COc1ccc(F)cc1Nc1ccc([N+](=O)[O-])c2c1CCN(C)C2 [Compound 6] | < 25 | –
36 | CN1CCc2c(-c3ccccc3)cc(C#N)c(Br)c2C1 [Compound 175] | < 25 | –
37 | COc1ccc(F)cc1Nc1ccc(N)c2c1CCN(C)C2 [Compound 7] | < 25 | –
38 | COc1ccc(F)cc1Oc1ccc([N+](=O)[O-])c2c1CCN(C)C2 [Compound 10] | < 25 | –
39 | CN1CCc2c(Br)ccc(NC(=O)CCl)c2C1 [Compound 146] | < 25 | –
